Reference: ChEMBL document CHEMBL1156890, “Semi-synthetic aristolactams--inhibitors of CDK2 enzyme” (Bioorg Med Chem Lett, 2010)
The source made the active and inactive calls. The rule behind the calls is not given here.

Tests used:
MCF7 [1] = assay: Antiproliferative activity against human MCF7 cells by soft agar growth assay; format: functional, cell-based
MCF7 [2] = assay: Antiproliferative activity against human MCF7 cells by clonogenicity assay; format: functional, cell-based
[3] = Inhibition of MAPK
Aurora kinase A = target: T1, Aurora kinase A (Homo sapiens, UniProt O14965); assay: Inhibition of AUR2
T1 sequence (O14965 whole entry): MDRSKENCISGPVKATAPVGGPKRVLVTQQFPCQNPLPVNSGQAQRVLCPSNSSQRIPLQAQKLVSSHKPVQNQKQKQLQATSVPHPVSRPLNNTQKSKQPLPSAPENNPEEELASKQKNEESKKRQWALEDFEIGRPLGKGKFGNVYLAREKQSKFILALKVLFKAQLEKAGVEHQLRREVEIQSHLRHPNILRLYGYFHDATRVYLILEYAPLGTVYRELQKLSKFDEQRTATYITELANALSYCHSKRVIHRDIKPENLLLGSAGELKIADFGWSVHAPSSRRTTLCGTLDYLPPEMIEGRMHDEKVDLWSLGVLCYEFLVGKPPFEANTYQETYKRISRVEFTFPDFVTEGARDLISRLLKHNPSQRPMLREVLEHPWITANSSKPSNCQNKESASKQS

[4] = target: Cyclin-dependent kinase 1 (Homo sapiens, UniProt P06493); assay: Inhibition of CDC2
[5] = target: Cyclin-dependent kinase 4 (Homo sapiens, UniProt P11802); assay: Inhibition of CDK4
[6] = target: T2, Cyclin-dependent kinase 2 (Homo sapiens, UniProt P24941); assay: Inhibition of CDK2
[7] = target: T2, Cyclin-dependent kinase 2; assay: Inhibition of CDK2 at 50 uM

Cyclin-dependent kinase 4, sequence (P11802 whole entry): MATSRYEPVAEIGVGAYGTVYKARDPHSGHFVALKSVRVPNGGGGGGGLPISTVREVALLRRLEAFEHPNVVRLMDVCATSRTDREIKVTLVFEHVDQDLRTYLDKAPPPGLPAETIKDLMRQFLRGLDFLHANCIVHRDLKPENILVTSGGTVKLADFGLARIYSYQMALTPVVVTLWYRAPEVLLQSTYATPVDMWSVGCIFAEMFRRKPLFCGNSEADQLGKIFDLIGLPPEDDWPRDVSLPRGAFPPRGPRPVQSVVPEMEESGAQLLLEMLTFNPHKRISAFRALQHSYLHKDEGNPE
Cyclin-dependent kinase 1, sequence (P06493 whole entry): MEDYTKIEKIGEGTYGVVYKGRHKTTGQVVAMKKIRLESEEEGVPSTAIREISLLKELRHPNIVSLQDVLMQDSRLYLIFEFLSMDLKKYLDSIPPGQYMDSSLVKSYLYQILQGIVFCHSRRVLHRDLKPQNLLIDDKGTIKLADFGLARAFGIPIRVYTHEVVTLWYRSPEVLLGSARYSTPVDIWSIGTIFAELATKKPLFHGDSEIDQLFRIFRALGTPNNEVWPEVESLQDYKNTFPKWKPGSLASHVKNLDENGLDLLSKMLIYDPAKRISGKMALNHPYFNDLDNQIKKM

| Structure (SMILES) | IC50 [6] | Activity [7] | also measured |
| --- | --- | --- | --- |
| COc1c(O)cc2c3c(cc4ccc(O)cc4c13)NC2=O [ARISTOLACTAM AIIIA] |  |  | IC50 (MCF7 [1]): > 0.01 µM; IC50 (MCF7 [2]): 3 µM; IC50 [3]: > 50 µM; IC50 (Aurora kinase A): 5 µM; IC50 [4]: 0.2 µM; IC50 [5]: 2 µM |
| O=C1Nc2cc3ccc(O)cc3c3c4c(cc1c23)OCO4 | 2.15 µM |  |  |
| COc1ccc2c(c1OC)CN1CCc3cc4c(cc3C1C2)OCO4 (stereo unspecified) [TETRAHYDROBERBERINE] | > 50 µM |  |  |
| O=C1Nc2cc3c(O)cccc3c3c(O)c(O)cc1c23 | > 35 µM | inactive |  |
| O=C1Nc2cc3ccccc3c3c4c(cc1c23)OCO4 [ARISTOLACTAM II] | 15 µM | inactive |  |
| COc1ccc2c(cc3c4c(cc5c(c42)OCO5)C(=O)N3)c1OC | > 15 µM | inactive |  |
| O=C1Nc2cc3c(O)c(O)ccc3c3c4c(cc1c23)OCO4 | > 30 µM | inactive |  |
| COc1ccc2c(c1O)-c1c(OC)c(OC)cc3c1[C@H](C2)N(C)CC3 [ISOCORYDINE] | > 50 µM |  |  |
| O=C1Nc2cc3ccccc3c3c(O)c(O)cc1c23 | > 35 µM | inactive |  |
| COc1c(O)ccc2c1cc1c3c(cc4c(c32)OCO4)C(=O)N1 | 2.9 µM |  |  |
| COc1cccc2c1cc1c3c(cc4c(c32)OCO4)C(=O)N1C | > 35 µM | inactive |  |
| COc1cccc2c1cc1c3c(cc(O)c(O)c32)C(=O)N1 | > 35 µM | inactive |  |
| CN1C(=O)c2cc3c(c4c2c1cc1c(O)cccc14)OCO3 | > 35 µM | inactive |  |
| COc1cccc2c1c(Cl)c1c3c(cc(O)c(O)c32)C(=O)N1 | 10 µM | inactive |  |
| COc1ccc2c(c1OC)CC1c3c(cc4c(c3-2)OCO4)CCN1C (stereo unspecified) [CREBANINE] | > 50 µM |  |  |
| COC1=C[C@]23CCN(C)[C@H](Cc4ccc(OC)c(O)c42)C3=CC1=O [SALUTARIDINE] | > 50 µM |  |  |
| O=C(O)c1cc(O)c(O)c2c1c([N+](=O)[O-])cc1ccccc12 | 13.4 µM | inactive |  |
| O=C(O)c1cc2c(c3c1c([N+](=O)[O-])cc1ccccc13)OCO2 [ARISTOLOCHIC ACID II] | > 20 µM | inactive |  |
| O=C(O)c1cc2c(c3c1c([N+](=O)[O-])cc1ccc(O)cc13)OCO2 [ARISTOLOCHIC ACID C] | 30 µM | inactive |  |
| COc1cccc2c1cc([N+](=O)[O-])c1c(C(=O)O)cc3c(c12)OCO3 [ARISTOLOCHIC ACID] | > 20 µM | inactive |  |
| O=C1Nc2cc3c(O)cc(O)cc3c3c4c(cc1c23)OCO4 | > 50 µM | inactive |  |
| CN1CCc2cc3c(c4c2[C@H]1Cc1ccccc1-4)OCO3 [ROEMERINE HBR] | > 50 µM |  |  |

| Structure (SMILES) | IC50 [6] | Activity [7] | also measured |
| --- | --- | --- | --- |
| COc1ccc2nc3[nH]nc(C)c3c(OC)c2c1 | 0.02 µM |  | IC50 (MCF7 [1]): 2 µM; IC50 (MCF7 [2]): 3.5 µM; IC50 [3]: > 50 µM; IC50 (Aurora kinase A): 5 µM; IC50 [4]: 0.2 µM; IC50 [5]: 2 µM |
| COc1cccc2c1C[C@@H]1c3c(cc4c(c3-2)OCO4)CCN1C [STEPHANINE] | > 50 µM |  |  |
| COc1cc(O)cc2c1cc([N+](=O)[O-])c1c(C(=O)O)cc3c(c12)OCO3 [ARISTOLOCHIC D] | 25 µM | inactive |  |
| COc1cc(O)cc2c1cc1c3c(cc4c(c32)OCO4)C(=O)N1 | > 35 µM | inactive |  |
| COc1cccc2c1cc1c3c(cc4c(c32)OCO4)C(=O)N1 [ARISTOLACTAM I] | 1.2 µM |  |  |
| COc1c(O)ccc2c1cc([N+](=O)[O-])c1c(C(=O)O)cc3c(c12)OCO3 [7-HYDROXY ARISTOLOCHIC A] | 25 µM | inactive |  |
| COc1cccc2c1c(Cl)c([N+](=O)[O-])c1c(C(=O)O)cc(O)c(O)c12 | 16.5 µM | inactive |  |
| COc1cc2c(cc1OC)-c1c3c(cc4c1[C@H](C2)N(C)CC4)OCO3 [DICENTRINE] | > 50 µM |  |  |
| COc1ccc2c(c1O)-c1c(O)c(OC)cc3c1[C@H](C2)N(C)CC3 [CORYTUBERINE] | > 50 µM |  |  |
| COc1cc(OC)c2cc3c4c(cc5c(c4c2c1)OCO5)C(=O)N3 | > 15 µM | inactive |  |
| COc1cc(OC)c2cc([N+](=O)[O-])c3c(C(=O)O)cc4c(c3c2c1)OCO4 [ARISTOLOCHIC ACID IV] | > 20 µM | inactive |  |
| O=C1Nc2cc3c(O)cccc3c3c4c(cc1c23)OCO4 | 0.035 µM | inactive | IC50 [3]: 35.3 µM; IC50 (Aurora kinase A): 2.14 µM; IC50 [4]: 0.214 µM; IC50 [5]: 1.42 µM |
| O=C(O)c1cc(O)c(O)c2c1c([N+](=O)[O-])c(Cl)c1ccccc12 | 18 µM | inactive |  |
| O=C(O)c1cc2c(c3c1c([N+](=O)[O-])cc1c(O)cccc13)OCO2 [ARISTOLOCHIC ACID III] | 15 µM | inactive |  |
| COc1cccc2c1cc([N+](=O)[O-])c1c(C(=O)O)cc(O)c(O)c12 | > 30 µM | inactive |  |
| O=C1Nc2c(Cl)c3ccccc3c3c(O)c(O)cc1c23 | > 25 µM | inactive |  |
| O=C(O)c1cc(O)c(O)c2c1c([N+](=O)[O-])cc1c(O)cccc12 | 5.7 µM | inactive |  |
| COc1cc2c3c(c1O)-c1c(ccc(OC)c1OC)C[C@@H]3N(C)CC2 [CORYDINE] | > 50 µM |  |  |
| COc1cccc2c1c(OC)c([N+](=O)[O-])c1c(C(=O)O)cc3c(c12)OCO3 [7-METHOXY ARISTOLOCHIC ACID A] | > 20 µM | inactive |  |
| COC1=C[C@@H]2[C@@H]3Cc4ccc(OC)c(O)c4[C@]2(CCN3C)CC1=O [SINOMENINE] | > 50 µM |  |  |
| COc1ccc2cc([N+](=O)[O-])c3c(C(=O)O)cc4c(c3c2c1)OCO4 | > 20 µM | inactive |  |
